13 compounds from ChEMBL document CHEMBL5465560, “Selectivity Literature for EUbOPEN Chemogenomic Library” (2024) can be followed below.

Test [1] concerns the target Serine/threonine-protein kinase WNK2 (Homo sapiens) (UniProt Q9Y3S1). Description: Selectivity interaction (LanthaScreen Eu Kinase Binding Assay) EUB0001632a WNK2. Conditions: at 10 µM. (TR-FRET usually uses a lanthanide donor and a delayed reading to cut background.)
Test [2] deals with Platelet-derived growth factor receptor beta (Homo sapiens, UniProt P09619). Description: Selectivity interaction (Kinase panel (Carna Biosciences)) EUB0001542aTs PDGFRB. The following applies: at 1 µM.
In test [3] the target is Mitogen-activated protein kinase kinase kinase 1 (Homo sapiens, UniProt Q13233). Description: Selectivity interaction (Kinase panel (KiNativ target engagement assay in Jurkat cells)) EUB0001635a MAP3K1. It counts as cell-based. The following applies: Selectivity number of off-targets 0.0, Selectivity number of targets 233.0, Source Knowledge https://www.sciencedirect.com/science/article/pii/S2451945619300674?via%3Dihub, at 1 µM.

Test [4] concerns the target T1, cGMP-dependent protein kinase 2 (Homo sapiens) (UniProt Q13237).
T1 sequence (whole entry): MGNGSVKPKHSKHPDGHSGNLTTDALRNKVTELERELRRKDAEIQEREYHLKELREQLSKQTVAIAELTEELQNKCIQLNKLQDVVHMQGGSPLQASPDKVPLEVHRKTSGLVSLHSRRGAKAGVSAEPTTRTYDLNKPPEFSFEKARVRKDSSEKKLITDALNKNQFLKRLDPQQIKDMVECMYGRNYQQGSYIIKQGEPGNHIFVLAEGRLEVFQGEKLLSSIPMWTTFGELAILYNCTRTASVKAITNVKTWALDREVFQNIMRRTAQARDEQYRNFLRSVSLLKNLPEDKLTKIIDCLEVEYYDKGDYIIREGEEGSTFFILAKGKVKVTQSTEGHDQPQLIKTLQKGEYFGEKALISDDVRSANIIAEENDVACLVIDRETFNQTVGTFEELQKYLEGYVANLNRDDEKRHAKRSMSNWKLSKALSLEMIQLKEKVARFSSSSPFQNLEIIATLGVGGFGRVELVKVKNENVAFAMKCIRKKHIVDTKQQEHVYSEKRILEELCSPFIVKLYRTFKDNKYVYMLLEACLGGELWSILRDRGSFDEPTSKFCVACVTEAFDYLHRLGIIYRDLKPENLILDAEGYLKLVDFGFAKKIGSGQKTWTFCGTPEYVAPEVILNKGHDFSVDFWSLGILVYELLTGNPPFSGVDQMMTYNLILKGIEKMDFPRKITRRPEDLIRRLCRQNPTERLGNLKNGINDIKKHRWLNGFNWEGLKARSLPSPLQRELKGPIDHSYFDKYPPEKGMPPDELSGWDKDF
Description: Selectivity interaction (Ambit KINOMEscan and KiNATiv profiling in Jurkat cells) EUB0000090b PRKG2. The following applies: at 1 µM. In kind it is cell-based.

Test [5] deals with DNA (cytosine-5)-methyltransferase 3B (Homo sapiens) (UniProt Q9UBC3). Put plainly: Selectivity interaction (Methyltransferase screen (radiometric assays, panel of 8 PRMTs, 21 protein lysine methyltransferases, 3 DNA methyltransferases, and one RNA methyltransferase)) EUB0000271b DNMT3B.
Test [6] has as its target T2, Ankyrin repeat and protein kinase domain-containing protein 1 (Homo sapiens) (UniProt Q8NFD2).
T2 sequence (whole entry): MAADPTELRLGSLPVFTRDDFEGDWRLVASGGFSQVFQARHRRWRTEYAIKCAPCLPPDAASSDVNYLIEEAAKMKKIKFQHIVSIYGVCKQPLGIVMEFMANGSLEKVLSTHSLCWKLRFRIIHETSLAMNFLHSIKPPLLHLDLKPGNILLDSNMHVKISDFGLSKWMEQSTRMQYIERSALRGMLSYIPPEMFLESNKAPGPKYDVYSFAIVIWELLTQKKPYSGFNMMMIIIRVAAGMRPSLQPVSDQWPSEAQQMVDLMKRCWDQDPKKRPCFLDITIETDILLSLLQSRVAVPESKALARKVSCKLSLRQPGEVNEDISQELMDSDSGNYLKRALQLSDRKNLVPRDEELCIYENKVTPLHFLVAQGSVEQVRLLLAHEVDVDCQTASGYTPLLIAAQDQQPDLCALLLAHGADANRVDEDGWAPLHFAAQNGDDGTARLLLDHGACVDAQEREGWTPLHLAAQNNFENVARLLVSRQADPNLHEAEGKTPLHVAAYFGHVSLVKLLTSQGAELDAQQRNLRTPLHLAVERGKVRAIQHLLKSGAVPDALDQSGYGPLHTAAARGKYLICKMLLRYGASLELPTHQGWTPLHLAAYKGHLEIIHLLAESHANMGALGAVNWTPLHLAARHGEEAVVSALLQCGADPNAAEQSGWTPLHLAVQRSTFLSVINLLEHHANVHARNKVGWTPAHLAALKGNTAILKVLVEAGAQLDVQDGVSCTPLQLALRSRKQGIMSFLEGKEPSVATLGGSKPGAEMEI
Description: Selectivity interaction (KinomeScan (DiscoverX)) EUB0001079a ANKK1. Conditions: at 1 µM.

Test [7] deals with Sodium-dependent dopamine transporter (Homo sapiens, UniProt Q01959). Put plainly: Selectivity interaction (GPCR panel (PDSP screen)) EUB0001079a SLC6A3. Conditions: at 10 µM.
Test [8] has as its target Ribosomal protein S6 kinase alpha-6 (Homo sapiens, UniProt Q9UK32). Put plainly: Selectivity interaction (KinomeScan (DiscoverX)) EUB0001079a RPS6KA6. The following applies: at 1 µM.
Test [9] deals with cAMP-dependent protein kinase catalytic subunit alpha (Homo sapiens, UniProt P17612). Put plainly: Selectivity interaction (KinomeScan (DiscoverX)) EUB0001619a PRKACA. Conditions: at 1 µM.
Another test concerns the target Aurora kinase B (Homo sapiens, UniProt Q96GD4). Description: Selectivity interaction (ActivX KiNativ screen (kinase selectivity in THP-1 cell lysates)) EUB0000639a AURKB. It counts as subcellular. Conditions: lysate, at 5 µM.
The target of test [10] is Dual specificity mitogen-activated protein kinase kinase 2 (Homo sapiens) (UniProt P36507). Description: Selectivity interaction (ActivX KiNativ screen (kinase selectivity in THP-1 cell lysates)) EUB0000639a MAP2K2. It counts as subcellular. The following applies: lysate, at 1 µM.
Sequence of Dual specificity mitogen-activated protein kinase kinase 2 (Homo sapiens) (P36507 whole entry): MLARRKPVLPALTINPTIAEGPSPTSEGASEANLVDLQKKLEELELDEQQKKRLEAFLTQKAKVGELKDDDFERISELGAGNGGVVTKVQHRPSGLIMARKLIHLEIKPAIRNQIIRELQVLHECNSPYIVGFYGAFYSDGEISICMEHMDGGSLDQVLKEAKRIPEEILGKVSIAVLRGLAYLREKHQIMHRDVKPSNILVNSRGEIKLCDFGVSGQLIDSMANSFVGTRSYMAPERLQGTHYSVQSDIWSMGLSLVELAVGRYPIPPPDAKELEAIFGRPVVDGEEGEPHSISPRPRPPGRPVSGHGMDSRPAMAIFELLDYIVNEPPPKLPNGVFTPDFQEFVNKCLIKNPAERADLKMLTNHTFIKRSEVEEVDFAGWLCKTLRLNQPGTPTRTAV
Test [11] has as its target Tyrosine-protein kinase SYK (Homo sapiens, UniProt P43405). Description: Selectivity interaction (ProQinase) EUB0000171b SYK.
Test [12] has as its target Casein kinase II subunit alpha (Homo sapiens, UniProt P68400). Description: Selectivity interaction (ProQinase) EUB0000171b CSNK2A1.
The next test addresses Nischarin (Homo sapiens) (UniProt Q9Y2I1). Put plainly: Selectivity interaction (Eurofins CEREP Diversity Profile (receptors and ion channels)) EUB0000279b NISCH. The following applies: at 10 µM.
For test [13], the target named is Histone acetyltransferase p300 (Homo sapiens) (UniProt Q09472). Put plainly: Selectivity interaction (Bromodomain panel (DSF asssay)) EUB0000270b EP300.
Sequence of Histone acetyltransferase p300 (Homo sapiens) (Q09472 whole entry): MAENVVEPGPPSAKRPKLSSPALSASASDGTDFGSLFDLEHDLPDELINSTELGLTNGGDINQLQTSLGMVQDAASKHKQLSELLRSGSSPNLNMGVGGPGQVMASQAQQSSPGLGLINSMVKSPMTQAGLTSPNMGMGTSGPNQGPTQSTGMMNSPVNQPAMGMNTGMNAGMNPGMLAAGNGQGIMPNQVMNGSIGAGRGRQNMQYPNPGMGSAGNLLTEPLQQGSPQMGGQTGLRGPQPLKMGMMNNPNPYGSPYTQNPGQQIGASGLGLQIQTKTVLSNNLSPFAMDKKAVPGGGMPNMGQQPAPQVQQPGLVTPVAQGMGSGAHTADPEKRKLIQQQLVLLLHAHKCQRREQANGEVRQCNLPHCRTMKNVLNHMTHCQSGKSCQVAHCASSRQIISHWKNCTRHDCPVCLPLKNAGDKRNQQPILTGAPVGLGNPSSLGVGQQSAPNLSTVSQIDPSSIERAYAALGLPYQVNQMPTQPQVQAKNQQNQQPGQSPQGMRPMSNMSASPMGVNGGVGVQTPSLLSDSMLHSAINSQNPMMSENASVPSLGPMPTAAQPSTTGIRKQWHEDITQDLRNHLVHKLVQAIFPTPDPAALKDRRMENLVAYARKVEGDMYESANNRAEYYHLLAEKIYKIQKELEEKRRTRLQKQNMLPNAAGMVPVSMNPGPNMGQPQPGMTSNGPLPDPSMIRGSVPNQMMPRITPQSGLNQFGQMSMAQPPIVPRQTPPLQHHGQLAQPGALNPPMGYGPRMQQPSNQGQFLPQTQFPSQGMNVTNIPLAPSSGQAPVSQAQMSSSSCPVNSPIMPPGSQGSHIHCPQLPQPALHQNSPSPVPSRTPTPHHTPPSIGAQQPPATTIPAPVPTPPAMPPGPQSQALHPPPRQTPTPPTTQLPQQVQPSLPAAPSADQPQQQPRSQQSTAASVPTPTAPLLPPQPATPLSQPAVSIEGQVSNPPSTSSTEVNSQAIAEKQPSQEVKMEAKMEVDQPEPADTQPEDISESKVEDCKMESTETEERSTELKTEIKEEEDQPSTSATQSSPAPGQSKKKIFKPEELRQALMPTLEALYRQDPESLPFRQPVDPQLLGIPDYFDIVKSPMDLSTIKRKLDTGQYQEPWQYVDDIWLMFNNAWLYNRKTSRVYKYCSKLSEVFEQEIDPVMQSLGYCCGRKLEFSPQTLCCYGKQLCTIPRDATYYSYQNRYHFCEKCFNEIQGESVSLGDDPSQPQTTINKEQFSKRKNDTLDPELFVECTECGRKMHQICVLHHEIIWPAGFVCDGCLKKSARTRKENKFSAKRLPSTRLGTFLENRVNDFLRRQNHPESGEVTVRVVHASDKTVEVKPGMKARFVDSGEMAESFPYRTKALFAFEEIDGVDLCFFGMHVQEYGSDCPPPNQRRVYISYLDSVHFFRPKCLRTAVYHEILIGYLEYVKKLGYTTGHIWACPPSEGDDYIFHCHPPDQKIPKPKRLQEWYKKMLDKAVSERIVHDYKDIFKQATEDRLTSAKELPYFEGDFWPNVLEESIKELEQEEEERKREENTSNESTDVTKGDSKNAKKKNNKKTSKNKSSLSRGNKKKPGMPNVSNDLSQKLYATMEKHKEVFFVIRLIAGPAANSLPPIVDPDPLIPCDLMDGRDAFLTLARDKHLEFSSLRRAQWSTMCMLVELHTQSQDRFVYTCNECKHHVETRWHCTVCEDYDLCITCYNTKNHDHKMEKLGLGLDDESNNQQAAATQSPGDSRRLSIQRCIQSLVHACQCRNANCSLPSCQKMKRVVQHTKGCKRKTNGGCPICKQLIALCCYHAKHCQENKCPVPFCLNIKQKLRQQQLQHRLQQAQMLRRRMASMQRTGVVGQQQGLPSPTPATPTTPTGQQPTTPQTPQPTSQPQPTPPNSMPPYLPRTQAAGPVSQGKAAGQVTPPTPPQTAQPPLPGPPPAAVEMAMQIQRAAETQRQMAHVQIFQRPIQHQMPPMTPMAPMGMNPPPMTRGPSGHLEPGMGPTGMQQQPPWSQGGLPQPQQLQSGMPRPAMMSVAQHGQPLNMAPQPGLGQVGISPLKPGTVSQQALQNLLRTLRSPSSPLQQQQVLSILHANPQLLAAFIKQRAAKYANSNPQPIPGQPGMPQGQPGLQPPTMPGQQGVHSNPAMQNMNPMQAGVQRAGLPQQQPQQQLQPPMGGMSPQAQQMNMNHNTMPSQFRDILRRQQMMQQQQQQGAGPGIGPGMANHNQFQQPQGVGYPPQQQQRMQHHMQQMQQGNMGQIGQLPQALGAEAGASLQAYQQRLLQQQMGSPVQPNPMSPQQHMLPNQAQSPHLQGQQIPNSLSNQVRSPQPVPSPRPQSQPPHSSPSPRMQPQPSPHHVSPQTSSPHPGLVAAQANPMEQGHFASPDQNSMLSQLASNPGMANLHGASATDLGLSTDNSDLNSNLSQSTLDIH
In test [14] the target is Vascular endothelial growth factor receptor 1 (Homo sapiens) (UniProt P17948). Put plainly: Selectivity interaction (KinomeScan (DiscoverX)) EUB0000045b FLT1.
Sequence of Vascular endothelial growth factor receptor 1 (Homo sapiens) (P17948 whole entry): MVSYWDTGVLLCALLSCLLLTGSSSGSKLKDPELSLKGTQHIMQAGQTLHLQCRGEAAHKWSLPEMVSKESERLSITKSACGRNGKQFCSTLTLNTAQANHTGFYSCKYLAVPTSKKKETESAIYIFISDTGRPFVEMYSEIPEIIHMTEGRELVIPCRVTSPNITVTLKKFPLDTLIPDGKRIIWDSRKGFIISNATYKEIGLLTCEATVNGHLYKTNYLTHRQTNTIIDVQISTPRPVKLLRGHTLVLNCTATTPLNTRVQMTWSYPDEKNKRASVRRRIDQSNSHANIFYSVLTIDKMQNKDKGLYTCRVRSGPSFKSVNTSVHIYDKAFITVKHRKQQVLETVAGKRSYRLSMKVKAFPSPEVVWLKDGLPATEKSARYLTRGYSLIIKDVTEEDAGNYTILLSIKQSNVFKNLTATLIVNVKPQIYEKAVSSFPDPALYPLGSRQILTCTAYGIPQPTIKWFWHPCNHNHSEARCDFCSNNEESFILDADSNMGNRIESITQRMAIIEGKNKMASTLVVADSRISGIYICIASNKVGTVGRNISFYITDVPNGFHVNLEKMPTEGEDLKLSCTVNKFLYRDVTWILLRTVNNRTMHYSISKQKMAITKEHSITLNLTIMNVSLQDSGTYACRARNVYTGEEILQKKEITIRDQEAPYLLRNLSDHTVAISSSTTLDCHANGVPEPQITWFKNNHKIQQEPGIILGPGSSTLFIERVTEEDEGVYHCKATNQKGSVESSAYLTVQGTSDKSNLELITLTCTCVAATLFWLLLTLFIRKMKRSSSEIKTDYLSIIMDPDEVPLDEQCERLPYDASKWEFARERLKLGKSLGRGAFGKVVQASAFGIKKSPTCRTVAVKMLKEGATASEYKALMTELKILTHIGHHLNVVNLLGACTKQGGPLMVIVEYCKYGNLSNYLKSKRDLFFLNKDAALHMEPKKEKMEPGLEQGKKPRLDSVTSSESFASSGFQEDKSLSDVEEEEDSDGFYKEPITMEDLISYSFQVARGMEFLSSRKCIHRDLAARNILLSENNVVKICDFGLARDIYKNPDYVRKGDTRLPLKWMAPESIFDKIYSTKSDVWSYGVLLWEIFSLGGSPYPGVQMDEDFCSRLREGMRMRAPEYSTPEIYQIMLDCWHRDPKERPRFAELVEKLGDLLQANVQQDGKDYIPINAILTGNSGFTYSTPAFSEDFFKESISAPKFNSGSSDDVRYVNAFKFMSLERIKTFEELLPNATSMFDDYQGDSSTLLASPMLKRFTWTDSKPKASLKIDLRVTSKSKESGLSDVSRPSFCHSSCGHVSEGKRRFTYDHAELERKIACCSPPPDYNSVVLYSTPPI
Test [15] concerns the target STE20/SPS1-related proline-alanine-rich protein kinase (Homo sapiens) (UniProt Q9UEW8). Description: Selectivity interaction (KinomeScan (DiscoverX)) EUB0000618a STK39. Conditions: at 10 µM.

Sequence of Casein kinase II subunit alpha (P68400 whole entry, looked up): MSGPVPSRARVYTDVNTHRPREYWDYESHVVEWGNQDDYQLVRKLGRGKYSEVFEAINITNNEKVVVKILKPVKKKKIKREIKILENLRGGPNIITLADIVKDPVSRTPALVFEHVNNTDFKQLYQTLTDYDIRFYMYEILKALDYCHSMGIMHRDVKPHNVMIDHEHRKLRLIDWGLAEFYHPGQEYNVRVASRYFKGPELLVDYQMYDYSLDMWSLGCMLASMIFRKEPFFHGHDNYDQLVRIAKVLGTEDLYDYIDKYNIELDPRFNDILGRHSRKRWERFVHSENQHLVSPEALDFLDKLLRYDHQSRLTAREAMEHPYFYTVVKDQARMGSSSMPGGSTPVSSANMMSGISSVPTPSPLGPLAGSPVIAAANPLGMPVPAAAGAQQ
Sequence of Aurora kinase B (Q96GD4 whole entry): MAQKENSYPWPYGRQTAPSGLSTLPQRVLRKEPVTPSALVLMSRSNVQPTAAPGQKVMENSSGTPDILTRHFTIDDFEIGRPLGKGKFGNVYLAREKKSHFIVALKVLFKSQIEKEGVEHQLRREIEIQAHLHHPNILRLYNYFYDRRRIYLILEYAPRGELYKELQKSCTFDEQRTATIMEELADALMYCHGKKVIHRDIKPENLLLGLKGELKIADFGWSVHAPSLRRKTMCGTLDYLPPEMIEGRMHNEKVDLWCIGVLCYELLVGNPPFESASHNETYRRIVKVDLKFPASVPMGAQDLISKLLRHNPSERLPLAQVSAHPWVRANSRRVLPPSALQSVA

For `Cn1cc(-n2cnc3c(NCc4nc5cc(Cl)c(Cl)cc5[nH]4)nc(N4CCOCC4)nc32)cn1`, the % of inhibition in [1] is -13.6%. For `Cn1cc(Nc2nccc(N3CC4CCC(C3)N4C(=O)[C@@H]3CC3(F)F)n2)cn1`, the % of inhibition in [2] was found to be 66%. For the compound `C=CC(=O)Nc1ccc(C(=O)Nc2[nH]nc3c2CN(C(=O)N[C@H](CN(C)C)c2ccccc2)C3(C)C)cc1`, in test [3], the % of engagement came to 12.9%. Consider `CN(C)C/C=C/C(=O)Nc1ccc(C(=O)N2CCCC(Nc3ncc(Cl)c(-c4c[nH]c5ccccc45)n3)C2)cc1` (stereo unspecified), for which the % of control in [4] amounted to 95%.

Take `Cc1cc(C)cc([C@@H]2c3cc(C)ccc3NC(=O)CN2C(=O)c2ccc(Br)s2)c1`: the % of activity is 103% in test [5] (at 1 µM) and 98.3% in [5] (at 10 µM). Regarding `Nc1cnc(N2CCc3cc(S(=O)(=O)Nc4c(F)cc(Cl)cc4F)cc(N4CCCC4=O)c32)nc1` [TP-020n], the % of control in [6] and in [8] was 100% in each case. Also, in test [7], the % of inhibition worked out at 20.2%. Compound `N#Cc1cccc(-c2c[nH]c3ncnc(N4CCOCC4)c23)c1` showed a % of control in test [9] of 94%. For `CC[C@@H]1[C@H](F)C(=O)N[C@@H]1COc1nccc2cc(C(N)=O)c(OC)cc12` [ZIMLOVISERTIB], the % of inhibition is 64.4% at Aurora kinase B and -10.2% in test [10].

As for `C=CC(=O)Nc1cccc(C(=O)Nc2ccc(Nc3cc(-c4[nH]c(SC)nc4C)ccn3)cc2)c1`, the % of control in test [11] (at 1 µM) amounted to 94%; in test [11] (at 5 µM), 86%; in [12] (at 1 µM), 92%; in test [12] (at 5 µM), 75%.

`CC(=O)c1cc(-c2ccccc2OCC2CC2)c2ncccn12`: the % of control on Nischarin (Homo sapiens) is 87%. Consider `Cc1cc(CN)cc(C)c1-c1ncn(C)c1-c1cncn1C`, for which the dTM in [13] is -1.45 K. Regarding `C=CC(=O)Nc1cc(-n2c(=O)ccc3cnc4ccc(-c5ccc(NS(C)(=O)=O)cc5)cc4c32)ccc1C`, the % of control in test [14] (at 1 µM) and in [14] (at 10 µM) was 100% throughout. On to `O[C@H]1CC[C@H](Nc2ncc3nc(Nc4c(F)cc(F)cc4F)n([C@H]4CCOC4)c3n2)CC1`, for which the % of control in test [15] came out at 100%.
